This note sets out measurements from ChEMBL document CHEMBL1138773, “Design and synthesis of aryl diphenolic azoles as potent and selective estrogen receptor-beta ligands” (J Med Chem, 2004).

A word on the IC50: it is the concentration that inhibits the measured activity by half. High values mean weaker potency in that assay, low ones greater potency in that assay.

For assay [1], the target named is T1, Estrogen receptor (Rattus norvegicus, UniProt P06211).
T1 sequence (P06211 whole entry): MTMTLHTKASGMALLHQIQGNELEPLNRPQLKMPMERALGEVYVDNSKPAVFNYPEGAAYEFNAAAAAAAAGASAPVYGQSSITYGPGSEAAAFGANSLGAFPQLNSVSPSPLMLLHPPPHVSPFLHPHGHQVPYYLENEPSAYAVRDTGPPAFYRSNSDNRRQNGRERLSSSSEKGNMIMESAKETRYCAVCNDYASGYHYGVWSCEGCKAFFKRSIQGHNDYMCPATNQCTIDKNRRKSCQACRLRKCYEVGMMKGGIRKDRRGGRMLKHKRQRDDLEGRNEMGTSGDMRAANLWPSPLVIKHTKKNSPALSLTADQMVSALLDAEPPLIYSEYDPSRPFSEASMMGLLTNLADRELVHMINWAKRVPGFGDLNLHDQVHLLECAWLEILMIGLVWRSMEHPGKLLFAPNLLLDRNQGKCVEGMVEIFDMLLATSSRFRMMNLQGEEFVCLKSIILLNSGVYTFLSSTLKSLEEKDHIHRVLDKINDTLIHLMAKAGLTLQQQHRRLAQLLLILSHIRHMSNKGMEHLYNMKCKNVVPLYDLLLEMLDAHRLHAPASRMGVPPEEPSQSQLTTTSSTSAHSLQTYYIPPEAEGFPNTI

In assay [2] the target is Estrogen receptor beta (Rattus norvegicus, UniProt Q62986).
Assay [3] concerns the target Estrogen receptor beta (Mus musculus, UniProt O08537).
Assay [4] addresses Estrogen receptor beta (Rattus norvegicus) (UniProt Q62986). The note with it: Prostate gland.
Assay [5] concerns the target T2, Estrogen receptor (Homo sapiens, UniProt P03372).
T2 sequence (P03372 whole entry): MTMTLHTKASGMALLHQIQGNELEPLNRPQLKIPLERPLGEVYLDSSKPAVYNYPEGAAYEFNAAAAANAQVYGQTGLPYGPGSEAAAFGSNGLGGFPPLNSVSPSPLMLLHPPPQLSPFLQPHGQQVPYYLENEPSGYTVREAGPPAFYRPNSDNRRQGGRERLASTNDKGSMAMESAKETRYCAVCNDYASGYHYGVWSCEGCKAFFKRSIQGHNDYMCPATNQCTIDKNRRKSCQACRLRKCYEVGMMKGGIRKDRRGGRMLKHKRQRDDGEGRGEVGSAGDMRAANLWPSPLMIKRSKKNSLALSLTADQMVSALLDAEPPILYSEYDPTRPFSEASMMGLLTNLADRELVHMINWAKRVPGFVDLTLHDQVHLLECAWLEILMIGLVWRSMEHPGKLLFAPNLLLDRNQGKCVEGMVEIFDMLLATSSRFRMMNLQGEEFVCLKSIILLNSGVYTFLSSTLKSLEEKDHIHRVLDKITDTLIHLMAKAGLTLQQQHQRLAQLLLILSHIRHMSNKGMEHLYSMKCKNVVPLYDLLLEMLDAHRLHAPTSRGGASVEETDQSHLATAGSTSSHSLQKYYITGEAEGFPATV

Assay [6] deals with Estrogen receptor beta (Homo sapiens, UniProt Q92731).
The species entered for a further assay is Mus musculus. The note with it: dose 50 mg/kg.
The target in assay [7] is T3, Estrogen receptor (Mus musculus, UniProt P19785).
T3 sequence (P19785 whole entry): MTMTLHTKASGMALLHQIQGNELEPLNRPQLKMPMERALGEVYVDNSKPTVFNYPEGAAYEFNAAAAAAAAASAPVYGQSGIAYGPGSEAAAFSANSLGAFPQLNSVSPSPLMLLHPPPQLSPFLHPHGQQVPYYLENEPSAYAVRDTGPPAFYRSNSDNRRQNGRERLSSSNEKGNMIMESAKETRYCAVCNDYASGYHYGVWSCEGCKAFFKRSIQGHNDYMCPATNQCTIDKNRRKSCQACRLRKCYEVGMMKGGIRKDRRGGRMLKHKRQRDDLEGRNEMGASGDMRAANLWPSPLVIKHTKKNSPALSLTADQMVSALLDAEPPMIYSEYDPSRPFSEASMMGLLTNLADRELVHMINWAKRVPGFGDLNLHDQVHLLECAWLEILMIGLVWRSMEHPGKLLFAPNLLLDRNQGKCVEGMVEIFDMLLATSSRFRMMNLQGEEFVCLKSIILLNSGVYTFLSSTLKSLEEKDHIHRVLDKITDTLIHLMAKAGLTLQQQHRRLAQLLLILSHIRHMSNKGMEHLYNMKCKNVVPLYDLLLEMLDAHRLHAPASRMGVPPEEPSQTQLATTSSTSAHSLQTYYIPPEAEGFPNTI

Assay [8] is filed under the species Rattus norvegicus. As to the kind of experiment: Effect of combination of compound and PPT on rat vasomotor instability in terms of tail skin temperature change 15 min after naloxone injection. The class given is functional.
In assay [9] the target is Estrogen receptor beta (Rattus norvegicus) (UniProt Q62986). The note with it: Prostate gland. This is another data set of the same source.
Assay [10] relates to Rattus norvegicus. As to the kind of experiment: Total bone mineral density in ovariectomized rat when treated with compound at 10 mg/kg dose. It counts as functional.
In assay [11] the test system is Rattus norvegicus. As to the kind of experiment: Trabecular bone mineral density in ovariectomized rat when treated with compound at 10 mg/kg dose. The class given is functional, Trabecula.

Sequence of Estrogen receptor beta (Rattus norvegicus, UniProt Q62986) (Q62986 whole entry): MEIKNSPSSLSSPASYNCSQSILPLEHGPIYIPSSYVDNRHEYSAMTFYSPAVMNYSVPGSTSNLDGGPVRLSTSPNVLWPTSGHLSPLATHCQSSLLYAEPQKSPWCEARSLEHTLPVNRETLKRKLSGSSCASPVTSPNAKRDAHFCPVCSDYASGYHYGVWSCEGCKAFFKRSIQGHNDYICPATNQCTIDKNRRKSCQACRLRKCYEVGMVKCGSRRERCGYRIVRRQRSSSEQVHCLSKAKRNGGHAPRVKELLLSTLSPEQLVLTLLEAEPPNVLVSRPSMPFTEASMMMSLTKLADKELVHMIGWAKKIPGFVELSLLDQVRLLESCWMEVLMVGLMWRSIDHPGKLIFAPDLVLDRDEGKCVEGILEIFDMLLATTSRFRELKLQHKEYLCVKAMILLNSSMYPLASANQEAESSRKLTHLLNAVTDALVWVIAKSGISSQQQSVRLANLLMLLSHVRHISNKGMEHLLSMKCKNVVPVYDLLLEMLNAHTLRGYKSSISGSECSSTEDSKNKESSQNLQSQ
Sequence of Estrogen receptor beta (Rattus norvegicus) (Q62986 whole entry): as above
Sequence of Estrogen receptor beta (Mus musculus, UniProt O08537) (O08537 whole entry): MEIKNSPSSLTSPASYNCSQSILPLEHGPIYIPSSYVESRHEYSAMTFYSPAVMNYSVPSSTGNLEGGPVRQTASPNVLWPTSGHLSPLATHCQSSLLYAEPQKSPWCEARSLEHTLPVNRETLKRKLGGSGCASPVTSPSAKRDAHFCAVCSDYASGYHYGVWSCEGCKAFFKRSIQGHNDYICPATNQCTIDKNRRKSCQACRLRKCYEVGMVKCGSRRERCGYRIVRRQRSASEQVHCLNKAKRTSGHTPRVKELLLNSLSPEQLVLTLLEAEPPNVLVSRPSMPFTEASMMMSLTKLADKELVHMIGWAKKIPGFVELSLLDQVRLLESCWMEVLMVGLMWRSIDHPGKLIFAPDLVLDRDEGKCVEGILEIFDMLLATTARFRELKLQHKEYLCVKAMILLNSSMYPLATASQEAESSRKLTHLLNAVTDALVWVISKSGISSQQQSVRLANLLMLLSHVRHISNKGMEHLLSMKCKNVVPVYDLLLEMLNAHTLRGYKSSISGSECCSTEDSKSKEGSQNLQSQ
Sequence of Estrogen receptor beta (Homo sapiens, UniProt Q92731) (Q92731 whole entry): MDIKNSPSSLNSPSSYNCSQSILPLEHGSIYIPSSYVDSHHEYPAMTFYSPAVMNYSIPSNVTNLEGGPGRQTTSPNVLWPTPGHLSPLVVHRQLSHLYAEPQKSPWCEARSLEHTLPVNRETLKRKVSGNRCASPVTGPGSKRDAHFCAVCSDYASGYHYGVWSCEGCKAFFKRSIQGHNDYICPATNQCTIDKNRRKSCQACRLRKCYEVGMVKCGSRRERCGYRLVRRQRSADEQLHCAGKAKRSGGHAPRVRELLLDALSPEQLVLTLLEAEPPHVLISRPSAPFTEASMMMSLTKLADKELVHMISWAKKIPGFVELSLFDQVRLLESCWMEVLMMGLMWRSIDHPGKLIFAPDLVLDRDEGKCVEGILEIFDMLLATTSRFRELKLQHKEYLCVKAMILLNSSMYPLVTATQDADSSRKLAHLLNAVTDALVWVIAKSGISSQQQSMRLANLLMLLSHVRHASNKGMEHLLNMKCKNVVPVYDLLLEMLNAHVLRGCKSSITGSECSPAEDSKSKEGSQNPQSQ
Description for Mus musculus: Weight of mouse uterine when treated with compound at 50 mg/kg dose was determined

`O=Cc1cc(O)cc2nc(-c3ccc(O)cc3)oc12`: the IC50 against Estrogen receptor [1] is 2250 nM; at Estrogen receptor beta [2], 29 nM; at Estrogen receptor beta [3], 16.5 nM.

In the case of `CC(C)C(=O)Nc1ccc([N+](=O)[O-])c(C(F)(F)F)c1`, in assay [4], the Weight came out at 15.2 mg.

Take `Oc1ccc2c(-c3ccccc3O)noc2c1`: the IC50 against Estrogen receptor [5] stood at 3000 nM.

For `C=CCc1cc(O)cc2nc(-c3ccc(O)cc3)oc12`, the IC50 on Estrogen receptor beta [6] stood at 13 nM; against Estrogen receptor [5], 727 nM. In addition, the Weight in the assay listed under Mus musculus was 10 mg.

On to `Oc1ccc(-c2nc3cc(O)ccc3o2)cc1`, for which the IC50 at Estrogen receptor beta [2] came out at 2.2 nM; at Estrogen receptor [7], 1630 nM; against Estrogen receptor beta [3], 9.9 nM.

As for `CCCCOc1cc(-c2nc3ccc(O)cc3o2)ccc1O`, the IC50 was 3660 nM at Estrogen receptor beta [6] and 6240 nM against Estrogen receptor [5].

With `Oc1ccc(-c2nc3cc(O)cc(/C=C\Br)c3o2)c(F)c1`, the IC50 is 16 nM on Estrogen receptor beta [6] and 196 nM at Estrogen receptor [5].

In the case of `N#Cc1cc(O)cc2nc(-c3ccc(O)cc3)oc12`, the Activity in the assay filed under Rattus norvegicus [8] stood at 2.7. Moreover, the IC50 against Estrogen receptor [1] was found to be 362 nM; on Estrogen receptor beta [2], 4 nM; at Estrogen receptor beta [3], 4.3 nM.

For the compound `C=Cc1cc(O)cc2nc(-c3ccc(O)cc3C)oc12`, the IC50 against Estrogen receptor beta [6] was found to be 27 nM; at Estrogen receptor [5] it was 1120 nM.

Take `C=Cc1cc(O)cc2nc(-c3ccc(O)c(F)c3)oc12` [PRINABEREL]: the Weight in [9] stood at 132 mg. Besides, the IC50 was 618 nM at Estrogen receptor [1], 3.14 nM at Estrogen receptor beta [2], 746 nM on Estrogen receptor [7] and 3.7 nM at Estrogen receptor beta [3].

In turn, `C=Cc1cc(O)cc2nc(-c3ccc(O)cc3)oc12` had an IC50 on Estrogen receptor [5] of 447 nM.

Consider `COC(=O)c1cc(O)cc2nc(-c3ccc(O)cc3)oc12`, for which the IC50 was 356 nM against Estrogen receptor beta [6] and over 5000 nM against Estrogen receptor [5].

As to `C/C=C\c1cc(O)cc2nc(-c3ccc(O)cc3F)oc12`, the figures for the IC50 on Estrogen receptor beta [6] and at Estrogen receptor [5] were 23 nM and 539 nM, respectively.

On to `C=Cc1cc(O)cc2nc(-c3c(F)cc(O)cc3F)oc12`, for which the IC50 against Estrogen receptor beta [6] amounted to 2.2 nM; against Estrogen receptor [5], 249 nM. This compound also came in with a Weight in the assay filed under Mus musculus of 10 mg.

On to `N#Cc1cc(O)ccc1-c1noc2cc(O)ccc12`, for which the values for the IC50 at Estrogen receptor beta [6] and against Estrogen receptor [5] were 12 nM and 264 nM, respectively.

Take `Oc1ccc(-c2nc3cc(O)cc(/C=C\Br)c3o2)cc1`: the figures for the concentration for half-maximal inhibition (IC50) on Estrogen receptor beta [6] and on Estrogen receptor [5] were 45 nM and 4650 nM, respectively.

For the compound `C=Cc1cc(O)cc2nc(-c3ccc(O)cc3F)oc12`, the Weight in the assay listed under Mus musculus is on record as 10.3 mg.

With `Oc1ccc(-c2noc3ccc(O)cc23)c(O)c1`, the values for the IC50 at Estrogen receptor beta [6] and on Estrogen receptor [5] were 138 nM and 4070 nM, respectively.

Take `Oc1ccc2c(-c3nc4cc(F)c(O)cc4o3)cccc2c1`: the IC50 amounted to 46 nM against Estrogen receptor beta [6] and 434 nM at Estrogen receptor [5].

As to `O/N=C/c1cc(O)ccc1-c1noc2cc(O)ccc12`, the figures for the IC50 against Estrogen receptor beta [6] and at Estrogen receptor [5] were 383 nM and 2390 nM, respectively.

For `Oc1ccc(-c2nc3cc(O)cc(Br)c3o2)cc1`, the values for the Density with Rattus norvegicus [10] and in the assay with Rattus norvegicus [11] were 525.51 mg/cm3 and 287.56 mg/cm3, respectively. Further, the Activity in the assay listed under Rattus norvegicus [8] is listed as 1.9. Also, the IC50 was 132 nM at Estrogen receptor [1], 1.2 nM against Estrogen receptor beta [2], 132 nM against Estrogen receptor [7] and 1.7 nM at Estrogen receptor beta [3].

For the compound `Oc1ccc(-c2nc3ccc(O)cc3o2)cc1`, the IC50 at Estrogen receptor [1] came to 821 nM; at Estrogen receptor beta [2] it was 20 nM; against Estrogen receptor [7], 1340 nM; at Estrogen receptor beta [3], 9.5 nM.

As to `Cc1cc(O)c2cccc(-c3nc4ccc(O)cc4o3)c2c1`, the results for the IC50 at Estrogen receptor beta [6] and at Estrogen receptor [5] were 6 nM and 163 nM, respectively.

In the case of `Oc1ccc(-c2noc3cc(O)ccc23)cc1`, the IC50 came to 716 nM against Estrogen receptor [1], 36 nM against Estrogen receptor beta [2], 1090 nM on Estrogen receptor [7] and 13 nM against Estrogen receptor beta [3].

On to `Oc1ccc2nc(-c3ccc(O)c(F)c3)oc2c1`, for which half-maximal inhibition at Estrogen receptor [5] (IC50) was put at 8430 nM.

Turning to `COc1c(Br)c(O)c(Br)c2nc(-c3ccc(O)c(F)c3)oc12`, the IC50 was 64 nM on Estrogen receptor beta [6] and 559 nM against Estrogen receptor [5].

Consider `Oc1cc(/C=C\F)c2oc(-c3ccc(O)c(F)c3)nc2c1`, for which the results for the IC50 on Estrogen receptor beta [6] and on Estrogen receptor [5] were 3.2 nM and 376 nM, respectively. The compound also registered a Weight in the assay filed under Mus musculus of 9.8 mg.

For `C=CCc1cc(O)cc2nc(-c3ccc(O)cc3F)oc12`, the values for the IC50 on Estrogen receptor beta [6] and against Estrogen receptor [5] were 3 nM and 98 nM, respectively.

In the case of `COc1cc(O)c(Br)c2nc(-c3ccc(O)c(F)c3)oc12`, the IC50 against Estrogen receptor beta [6] was 52 nM; against Estrogen receptor [5], 2670 nM.

On to `N#CCc1cc(O)ccc1-c1noc2cc(O)ccc12`, for which the values for the IC50 against Estrogen receptor beta [6] and at Estrogen receptor [5] were 96 nM and 717 nM, respectively.

On to `N#Cc1cc(O)cc2nc(-c3ccc(O)cc3F)oc12`, for which the IC50 at Estrogen receptor beta [6] turned out to be 2.4 nM; against Estrogen receptor [5], 138 nM.

On to `C=Cc1cc(O)cc2nc(-c3cc(F)c(O)cc3F)oc12`, for which the IC50 at Estrogen receptor beta [6] was determined as 66 nM; on Estrogen receptor [5], 4040 nM.

In the case of `Oc1ccc(-c2noc3ccccc23)c(O)c1`, the IC50 against Estrogen receptor beta [6] came to 718 nM; against Estrogen receptor [5] it was 6100 nM.

`O=C(O)c1cc(O)cc2nc(-c3ccc(O)cc3)oc12`: the IC50 at Estrogen receptor beta [6] and against Estrogen receptor [5] was over 5000 nM throughout.

In the case of `C/C=C\c1cc(O)cc2nc(-c3ccc(O)cc3)oc12`, the figures for the IC50 against Estrogen receptor beta [6] and at Estrogen receptor [5] were 1.42 nM and 775 nM, respectively.

In turn, `Oc1ccc2nc(-c3cccc(O)c3O)oc2c1` yielded an IC50 against Estrogen receptor [5] of 2350 nM.

`Oc1cc(Br)c2oc(-c3ccc(O)c(F)c3)nc2c1` came in with a Weight in [9] of 119 mg. Besides, the Density is 501.4 mg/cm3 in the assay with Rattus norvegicus [10] and 312.34 mg/cm3 in the assay on Rattus norvegicus [11]. Further, the IC50 turned out to be 171 nM on Estrogen receptor [1], 2 nM against Estrogen receptor beta [2], 199 nM on Estrogen receptor [7] and 2.7 nM against Estrogen receptor beta [3].
